Where “and” joins values, the source holds several entries; their conditions need not be identical. Equal entries are not always repeated.
Tests used:
WIL2-S = experiment: ADCC LDH release assay, purified NK cells against WIL2-S target cells; assay type: cell-based, human; conditions: for Percentage of maximum obinutuzumab-mediated ADCC: Obinutuzumab 10 μg/mL, E:T=10:1, 4 h; for Percentage of maximum ADCC, rituximab: rituximab 10 μg/mL, FcγRIIIa 158F/F
Text: PI3K isoforms may play a role in immune effector cells and FcγR signaling. The effects of Compound B on the immune effector functions of obinutuzumab and rituximab in lymphoma cell lines were examined. To characterize the antibody-dependent cellular cytotoxicity (ADCC), PBMCs were isolated from healthy individuals with FcγRIIIa genotypes of 158F/F, 158F/V, or 158V/V (Leuko Paks from AllCells, Alameda, Calif.) using Ficoll density gradient centrifugation. NK cells were enriched using a negative-selection immunomagnetic enrichment kit ([…] Technologies, Vancouver, British Columbia, Canada). Enriched NK cells and target cells WIL2-S, S-DHL-4, or Z-138 were separately pre-incubated for 1 hour with or without Compound B (1/2 dilutions from about 1 mM to about 1 nM). In the last 20 minutes of the pre-incubation, target cells were opsonized with or without rituximab or obinutuzumab (at 10 μg/mL, the saturating concentration with maximal ADCC) at indicated effector-target ratios (E:T). Palivizumab was used as an isotype control. NK and target cells were combined and incubated for 4 hours at 37° C. in 5% CO2. To determine ADCC, […] dehydrogenase (LDH) was measured using a cytotoxicity detection kit (Roche Applied Science, Indianapolis, Ind.). In some assays, antigen-independent cellular cytotoxicity (AICC) which represented spontaneous release by NK cell killing of target cells without antibodies were used as control.
LDH release assays were conducted at 4 hours using WIL2-S line as target and purified NK cells (E:T=10:1). The results (n=9) were normalized as % of maximum ADCC.

WIL2-S target cells = experiment: Antibody-dependent cellular phagocytosis (ADCP) with polarized macrophages; assay type: cell-based; conditions: Homo sapiens, Macrophage, 256 nM
Experimental: Next, antibody-dependent cellular phagocytosis (ADCP) was characterized. The CD14^+ negatively selected monocytes (Astarte Biologics, Bothell, Wash.) were cultured in Gibco AIM V Medium CTS (Life Technologies, Grand Island, N.Y.) with macrophage colony-stimulating factor (PeproTech, Rocky Hill, N.J.) at 60 ng/mL. At Day 6 or 7, monocyte-derived macrophages were washed and plated with polarizing cytokines. For differentiation to M1 macrophages, cells were plated with interferon-γ 100 ng/mL (R&D Systems, Minneapolis, Minn.) and lipopolysaccharides from E. coli 055:B5 100 ng/mL (Sigma-Aldrich, St Louis, Mo.) for 24 hours. For differentiation to M2c macrophages, cells were plated in interleukin-10 10 ng/mL (R&D Systems) for 48 hours. Compound B titration was added to the plated macrophages and incubated at 37° C. for about 1 hour. […] Cells were then stained with pooled FITC anti-CD14 (Becton, Dickinson and Company, Franklin Lakes, N.J.) and FITC anti-CD11b (eBioscience, San Diego, Calif.), harvested from 96-well plates with Accutase (Merck Millipore, Darmstadt, Germany) and vigorous pipetting, and analyzed on an LSR II flow cytometer (Becton, Dickinson and Company). Double-positive cells (FITC+CellTracker Red) represented phagocytized target cells and the levels of phagocytosis were calculated as % double-positive cells/% double positive cells+% target cells alone×100. […]

CC[C@H](Nc1ncnc2[nH]cnc12)c1nc2cccc(F)c2c(=O)n1-c1ccccc1 [Compound B, (S)-2-(1-((9H-purin-6-yl)amino)propyl)-5-fluoro-3-phenylquinazolin-4(3H)-one]
Percentage of maximum obinutuzumab-mediated ADCC (WIL2-S; Compound B 0.98 nM): 99% and 91% and 109% and 94% and 96% and 103% and 104% and 101% | Percentage of maximum obinutuzumab-mediated ADCC (WIL2-S; Compound B 1.95 nM): 100% and 89% and 125% and 104% and 106% and 112% and 107% | Percentage of maximum obinutuzumab-mediated ADCC (WIL2-S; Compound B 3.91 nM): 91% and 84% and 102% and 113% and 105% and 108% and 110% and 103% | Percentage of maximum obinutuzumab-mediated ADCC (WIL2-S; Compound B 7.81 nM): 90% and 89% and 98% and 113% and 105% and 109% and 107% and 94% | Percentage of maximum ADCC, rituximab (WIL2-S; Compound B 15.63 nM): 92% and 108% | Percentage of maximum obinutuzumab-mediated ADCC (WIL2-S; Compound B 31.25 nM): 82% and 85% and 102% and 107% and 96% and 95% | Percentage of maximum ADCC, rituximab (WIL2-S; Compound B 31.25 nM): 86% and 109% | Percentage of maximum obinutuzumab-mediated ADCC (WIL2-S; Compound B 62.5 nM): 78% and 88% and 103% and 95% and 108% and 112% and 98% | Percentage of maximum obinutuzumab-mediated ADCC (WIL2-S; Compound B 125 nM): 84% and 87% and 104% and 97% and 111% and 110% and 105% and 94% | Percentage of maximum obinutuzumab-mediated ADCC (WIL2-S; Compound B 250 nM): 89% and 91% and 99% and 97% and 95% and 106% and 109% and 102% | Percentage of maximum obinutuzumab-mediated ADCC (WIL2-S; Compound B 500 nM): 79% and 83% and 94% and 92% and 96% and 106% and 104% | Percentage of maximum ADCC, obinutuzumab (WIL2-S; Compound B 1000 nM, obinutuzumab 10 μg/mL, FcγRIIIa 158V/V, n=2): 83% and 82% | inhibition at […] (WIL2-S; Homo sapiens, 250 nM, FcγRIIIa 158V/V genotype, read-out: inhibition of obinutuzumab-mediated ADCC): < 10% | effect on obinutuzumab-mediated ADCC in FcγRIIIa 158F/F or 158F/V genotypes (WIL2-S; n=2 per genotype, antibody 10 μg/mL): did not affect | inhibition at 0.256 µM (WIL2-S target cells): < 30%
